{"source": "PubChem BioAssay AID272", "about": "(DTP/NCI, 2004)", "system": "Lewis lung carcinoma i.m., BDF1 mice, T/C %", "assay": "NCI In Vivo Anticancer Drug Screen. Data for tumor model Lewis Lung Carcinoma (intramuscular) in B6D2F1 (BDF1) mice", "settings": "schedule: Q01DX011 (ip)", "method_in_brief": "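Mice carrying transplantable tumours received test compound. Survival or tumour size was recorded and expressed as the treated-group value (T) divided by the vehicle-treated control-group value (C).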", "note": "Where “and” joins values, the source holds several entries; their conditions need not be identical. Identical values can stand only once. Results filed as inconclusive are left out.", "data": [{"smiles": "CC[n+]1c(-c2ccccc2)c2cc(N)ccc2c2ccc(N)cc21", "values": [{"measurement": "T/C", "setting": "endpoint: median survival time, dose: 0.25 mg/kg/injection, vehicle: steriod suspending solution, higher = longer survival", "result": "92 % of control"}, {"measurement": "T/C", "setting": "endpoint: median survival time, dose: 0.5 mg/kg/injection, vehicle: steriod suspending solution, higher = longer survival", "result": "107 % of control"}, {"measurement": "T/C", "setting": "endpoint: median survival time, dose: 1.0 mg/kg/injection, vehicle: steriod suspending solution, higher = longer survival", "result": "100 % of control"}, {"measurement": "T/C", "setting": "endpoint: median survival time, dose: 2.0 mg/kg/injection, vehicle: steriod suspending solution, higher = longer survival", "result": "117 % of control"}, {"measurement": "T/C", "setting": "endpoint: median survival time, dose: 4.0 mg/kg/injection, vehicle: steriod suspending solution, higher = longer survival", "result": "96 % of control"}, {"measurement": "T/C", "setting": "endpoint: median tumor weight (est.), dose: 0.25 mg/kg/injection, vehicle: steriod suspending solution, higher = larger tumour", "result": "90 % of control"}, {"measurement": "T/C", "setting": "endpoint: median tumor weight (est.), dose: 0.5 mg/kg/injection, vehicle: steriod suspending solution, higher = larger tumour", "result": "95 % of control"}, {"measurement": "T/C", "setting": "endpoint: median tumor weight (est.), dose: 1.0 mg/kg/injection, vehicle: steriod suspending solution, higher = larger tumour", "result": "90 % of control"}, {"measurement": "T/C", "setting": "endpoint: median tumor weight (est.), dose: 2.0 mg/kg/injection, vehicle: steriod suspending solution, higher = larger tumour", "result": "77 % of control"}, {"measurement": "T/C", "setting": "endpoint: median tumor weight (est.), dose: 4.0 mg/kg/injection, vehicle: steriod suspending solution, higher = larger tumour", "result": "73 % of control"}]}, {"smiles": "CC(=O)[C@@]1(O)CC[C@H]2[C@@H]3C[C@H](C)C4=CC(=O)C=C[C@]4(C)[C@@]3(F)[C@@H](O)C[C@@]21C", "values": [{"measurement": "T/C", "setting": "endpoint: mean tumor weight, dose: 12.5 mg/kg/injection, vehicle: steriod suspending solution, higher = larger tumour", "result": "40 % of control"}, {"measurement": "T/C", "setting": "endpoint: mean tumor weight, dose: 25.0 mg/kg/injection, vehicle: steriod suspending solution, higher = larger tumour", "result": "26 % of control"}, {"measurement": "T/C", "setting": "endpoint: mean tumor weight, dose: 50.0 mg/kg/injection, vehicle: steriod suspending solution, higher = larger tumour", "result": "19 % of control"}, {"measurement": "T/C", "setting": "endpoint: median survival time, dose: 12.5 mg/kg/injection, vehicle: steriod suspending solution, higher = longer survival", "result": "107 % of control"}, {"measurement": "T/C", "setting": "endpoint: median survival time, dose: 25.0 mg/kg/injection, vehicle: steriod suspending solution, higher = longer survival", "result": "94 % of control and 112 % of control"}]}, {"smiles": "O=Nc1c(N=O)c(N=O)c(N=O)c(N=O)c1N=O", "values": [{"measurement": "T/C", "setting": "endpoint: median survival time, dose: 5.0 mg/kg/injection, vehicle: saline with Tween-80, higher = longer survival", "result": "110 % of control"}, {"measurement": "T/C", "setting": "endpoint: median survival time, dose: 10.0 mg/kg/injection, vehicle: saline with Tween-80, higher = longer survival", "result": "106 % of control"}, {"measurement": "T/C", "setting": "endpoint: median survival time, dose: 20.0 mg/kg/injection, vehicle: saline with Tween-80, higher = longer survival", "result": "115 % of control"}]}, {"smiles": "C1CN1c1nc(N2CC2)nc(N2CC2)n1", "values": [{"measurement": "T/C", "setting": "endpoint: mean tumor weight (est.), dose: 0.06 mg/kg/injection, vehicle: saline, higher = larger tumour", "result": "78 % of control"}, {"measurement": "T/C", "setting": "endpoint: mean tumor weight (est.), dose: 0.12 mg/kg/injection, vehicle: saline, higher = larger tumour", "result": "67 % of control"}, {"measurement": "T/C", "setting": "endpoint: mean tumor weight (est.), dose: 0.25 mg/kg/injection, vehicle: saline, higher = larger tumour", "result": "37 % of control"}, {"measurement": "T/C", "setting": "endpoint: mean tumor weight (est.), dose: 0.5 mg/kg/injection, vehicle: saline, higher = larger tumour", "result": "37 % of control"}, {"measurement": "T/C", "setting": "endpoint: mean tumor weight, dose: 0.12 mg/kg/injection, vehicle: saline, higher = larger tumour", "result": "73 % of control"}, {"measurement": "T/C", "setting": "endpoint: mean tumor weight, dose: 0.25 mg/kg/injection, vehicle: saline, higher = larger tumour", "result": "73 % of control"}, {"measurement": "T/C", "setting": "endpoint: median survival time, dose: 0.06 mg/kg/injection, vehicle: saline, higher = longer survival", "result": "97 % of control"}, {"measurement": "T/C", "setting": "endpoint: median survival time, dose: 0.1 mg/kg/injection, vehicle: saline, higher = longer survival", "result": "116 % of control"}, {"measurement": "T/C", "setting": "endpoint: median survival time, dose: 0.12 mg/kg/injection, vehicle: saline, higher = longer survival", "result": "100 % of control and 106 % of control"}, {"measurement": "T/C", "setting": "endpoint: median survival time, dose: 0.2 mg/kg/injection, vehicle: saline, higher = longer survival", "result": "106 % of control"}, {"measurement": "T/C", "setting": "endpoint: median survival time, dose: 0.25 mg/kg/injection, vehicle: saline, higher = longer survival", "result": "110 % of control"}, {"measurement": "T/C", "setting": "endpoint: median survival time, dose: 0.4 mg/kg/injection, vehicle: saline, higher = longer survival", "result": "89 % of control"}, {"measurement": "T/C", "setting": "endpoint: median survival time, dose: 0.5 mg/kg/injection, vehicle: saline, higher = longer survival", "result": "122 % of control"}]}, {"smiles": "ClC1=NC(Cl)C(Cl)=N/C1=N\\c1ncn[nH]1", "note": "(stereo not drawn)", "values": [{"measurement": "T/C", "setting": "endpoint: median survival time, dose: 4.0 mg/kg/injection, vehicle: saline, higher = longer survival", "result": "108 % of control"}, {"measurement": "T/C", "setting": "endpoint: median survival time, dose: 8.0 mg/kg/injection, vehicle: saline, higher = longer survival", "result": "91 % of control"}, {"measurement": "T/C", "setting": "endpoint: median survival time, dose: 16.0 mg/kg/injection, vehicle: saline, higher = longer survival", "result": "92 % of control"}]}, {"smiles": "COC1N(C2CC(O)C(CO)O2)C(=O)NC(=O)C1(F)Br", "note": "(stereo not drawn)", "values": [{"measurement": "T/C", "setting": "endpoint: mean tumor weight (est.), dose: 5.0 mg/kg/injection, vehicle: saline, higher = larger tumour", "result": "87 % of control"}, {"measurement": "T/C", "setting": "endpoint: mean tumor weight (est.), dose: 10.0 mg/kg/injection, vehicle: saline, higher = larger tumour", "result": "29 % of control"}, {"measurement": "T/C", "setting": "endpoint: mean tumor weight (est.), dose: 20.0 mg/kg/injection, vehicle: saline, higher = larger tumour", "result": "7 % of control"}, {"measurement": "T/C", "setting": "endpoint: median survival time, dose: 5.0 mg/kg/injection, vehicle: saline, higher = longer survival", "result": "103 % of control"}]}]}
